Structures can show the parent of a compound that is named as a salt. Where two headings read alike, the source gives them in different places.
Target: PDE4D7 (Homo sapiens (Human), UniProt Q08499)
[1] = read-out: PDE4D7 IC50, PDE4D7 without asterisk

Chain of PDE4D7 (Q08499 other isoform, or with tags, fused parts or gaps): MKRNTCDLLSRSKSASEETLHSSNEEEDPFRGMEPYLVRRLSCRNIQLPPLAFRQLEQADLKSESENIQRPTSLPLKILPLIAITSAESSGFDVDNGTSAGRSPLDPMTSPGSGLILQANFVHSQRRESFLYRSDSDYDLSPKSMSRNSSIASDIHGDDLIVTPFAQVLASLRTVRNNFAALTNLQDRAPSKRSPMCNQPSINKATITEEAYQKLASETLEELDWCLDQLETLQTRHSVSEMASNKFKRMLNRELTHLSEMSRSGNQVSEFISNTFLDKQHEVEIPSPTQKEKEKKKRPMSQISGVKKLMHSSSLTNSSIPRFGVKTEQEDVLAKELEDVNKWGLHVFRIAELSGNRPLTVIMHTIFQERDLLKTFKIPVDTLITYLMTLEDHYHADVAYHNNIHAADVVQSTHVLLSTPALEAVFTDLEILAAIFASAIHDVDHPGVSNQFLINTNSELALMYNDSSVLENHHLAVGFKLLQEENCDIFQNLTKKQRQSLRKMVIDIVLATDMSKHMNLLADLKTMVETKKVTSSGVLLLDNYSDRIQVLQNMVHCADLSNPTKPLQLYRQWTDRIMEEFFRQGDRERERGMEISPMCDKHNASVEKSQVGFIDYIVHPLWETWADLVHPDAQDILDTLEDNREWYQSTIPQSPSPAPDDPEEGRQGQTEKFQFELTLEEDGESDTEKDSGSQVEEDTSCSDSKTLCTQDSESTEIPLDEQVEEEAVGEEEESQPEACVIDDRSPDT

Row | SMILES | IC50 [1] [nM] | also measured
1 | CCc1cc(Nc2ccc(C(C)(C)CO)cc2)nc(-c2cccc(Cl)c2)n1 [Example 184, 2-(4-((2-(3-Chlorophenyl)-6-ethylpyrimidin-4-yl)amino)phenyl)-2-methylpropan-1-ol] | > 1000 | 
2 | CCc1cc(Nc2ccc(Cn3cc(Cl)cn3)cc2)nc(-c2cccc(Cl)c2)n1 [Example 188, N-(4-((4-Chloro-1H-pyrazol-1-yl)methyl)phenyl)-2-(3-chlorophenyl)-6-ethylpyrimidin-4-amine] | > 1000 | 
3 | OCCc1ccc(Nc2cc(OC3CCCC3)nc3c2CCC3)cc1 [Example 257, 2-(4-((2-(Cyclopentyloxy)-6,7-dihydro-5H-cyclopenta[b]pyridin-4-yl)amino)phenyl)ethanol hydrochloride] | > 1000 | 
4 | CCc1c(C)nc(-c2ccc(Cl)s2)nc1Nc1ccc(Cn2cc(Cl)cn2)cc1 [Example 304, N-[4-[(4-Chloropyrazol-1-yl)methyl]phenyl]-2-(5-chloro-2-thienyl)-5-ethyl-6-methyl-pyrimidin-4-amine] | > 1000 | 
5 | NC(=O)Cc1ccc(Cc2cc(C(F)(F)F)nc(-c3cccc(Cl)c3)n2)cc1 [Example 204, 2-(4-((2-(3-Chlorophenyl)-6-(trifluoromethyl)pyrimidin-4-yl)methyl)phenyl)acetamide] | > 1000 | 
6 | NC(=O)Cc1ccc(Cc2nc(-c3cccc(Cl)c3)nc3c2CCC3)cc1 [Example 68, 2-(4-((2-(3-chlorophenyl)-6,7-dihydro-5H-cyclopenta[d]pyrimidin-4-yl)methyl)phenyl)acetamide] | > 1000 | 
7 | Cc1ccc(C(=O)c2nc(-c3cccc(Cl)c3)nc3c2CCC3)cc1 [Example 70, (2-(3-Chlorophenyl)-6,7-dihydro-5H-cyclopenta[d]pyrimidin-4-yl)(p-tolyl)methanone] | > 1000 | 
8 | Cc1cc(Nc2cc(-c3cccc(Cl)c3)nc3c2CCC3)ccc1CC#N [Example 109, 2-(4-((2-(3-Chlorophenyl)-6,7-dihydro-5H-cyclopenta[b]pyridin-4-yl)amino)-2-methylphenyl)acetonitrile hydrochloride] | > 1000 | 
9 | CCc1cc(Nc2ccc(CCN(C)C)cc2)nc(-c2cccc(Cl)c2)n1 [Example 170, 2-(3-Chlorophenyl)-N-(4-(2-(dimethylamino)ethyl)phenyl)-6-ethylpyrimidin-4-amine hydrochloride] | > 1000 | 
10 | NC(=O)Cc1ccc(Nc2cc(-c3ccc(Cl)s3)nc3c2CCC3)cc1 [Example 245, 2-(4-((2-(5-Chlorothiophen-2-yl)-6,7-dihydro-5H-cyclopenta[b]pyridin-4-yl)amino)phenyl)acetamide hydrochloride] | > 1000 | 
11 | OCCCc1cccc(-c2cc(-c3cccc(Cl)c3)nc3c2CCC3)c1 [Example 266, 3-(3-(2-(3-chlorophenyl)-6,7-dihydro-5H-cyclopenta[b]pyridin-4-yl)phenyl)propan-1-ol hydrochloride] | > 1000 | 
12 | CCc1nc(Nc2ccc(CO)cc2)nc(-c2cccc(Cl)c2)n1 [Example 80, (4-((4-(3-Chlorophenyl)-6-ethyl-1,3,5-triazin-2-yl)amino)phenyl)methanol] |  | IC50 (read-out: PDE4D7 IC50): < 1000 nM
13 | NC(=O)C(Cc1ccc(Nc2cc(-c3cccc(Cl)c3)nc3c2CCC3)cc1)C(N)=O [Example 122, 2-(4-((2-(3-Chlorophenyl)-6,7-dihydro-5H-cyclopenta[b]pyridin-4-yl)amino)benzyl)malonamide hydrochloride] | > 1000 | 
14 | NC(=O)Cc1ccc(Nc2cc(-c3ncco3)nc3c2CCC3)cc1 [Example 242, 2-(4-((2-(Oxazol-2-yl)-6,7-dihydro-5H-cyclopenta[b]pyridin-4-yl)amino)phenyl)acetamide] | > 1000 | 
15 | OCCc1ccc(Nc2ccnc(-c3cccc(Cl)c3)c2)cc1 [Example 84, 2-(4-((2-(3-Chlorophenyl)pyridin-4-yl)amino)phenyl)ethanol hydrochloride] |  | IC50: > 1000 nM
16 | CN(C)CCc1ccc(Nc2cc(-c3cccc(Cl)c3)nc3c2CCC3)cc1 [Example 105, 2-(3-Chlorophenyl)-N-(4-(2-(dimethylamino)ethyl)phenyl)-6,7-dihydro-5H-cyclopenta[b]pyridin-4-amine hydrochloride] |  | IC50 (read-out: PDE4D7 IC50): > 1000 nM
17 | CCc1c(Nc2ccc(CC(=O)O)cc2)cc(-c2cccc(Cl)c2)nc1C [Example 7, 2-[4-[[6-(3-Chlorophenyl)-3-ethyl-2-methyl-4-pyridyl]amino]phenyl]acetic acid] | > 1000 | 
18 | O=C(O)Cc1ccc(Nc2nc(-c3ccc(Cl)s3)nc(C3CC3)n2)cc1 [Example 34, 2-(4-(4-(5-chlorothiophen-2-yl)-6-cyclopropyl-1,3,5-triazin-2-ylamino)phenyl)acetic acid] | > 1000 | 
19 | CCc1cc(Cc2ccc(C(C)(C)CO)cc2)nc(-c2cccc(Cl)c2)n1 [Example 197, 2-(4-((2-(3-Chlorophenyl)-6-ethylpyrimidin-4-yl)methyl)phenyl)-2-methylpropan-1-ol] | > 1000 | 
20 | OCCc1ccc(Cc2cc(C3CC3)nc(-c3cccc(Cl)c3)n2)cc1 [Example 210, 2-(4-((2-(3-Chlorophenyl)-6-cyclopropylpyrimidin-4-yl)methyl)phenyl)ethanol] | > 1000 | 
21 | N#CCc1ccc(Nc2nc(-c3cccc(Cl)c3)nc3c2CCC3)cc1 [Example 19, 2-[4-[[2-(3-chlorophenyl)-6,7-dihydro-5H-cyclopenta[d]pyrimidin-4-yl]amino]phenyl]acetonitrile] | > 1000 | 
22 | NC(=O)Cc1ccc(Nc2cc(C3CC3)nc(-c3cccc(Cl)c3)n2)nc1 [Example 212, 2-(6-((2-(3-Chlorophenyl)-6-cyclopropylpyrimidin-4-yl)amino)pyridin-3-yl)acetamide] | > 1000 | 
23 | OCCc1ccc(C(O)c2cc(-c3cccc(Cl)c3)nc3c2CCC3)cc1 (stereo not drawn) [Example 263, 2-(4-((2-(3-Chlorophenyl)-6,7-dihydro-5H-cyclopenta[b]pyridin-4-yl)(hydroxy)methyl)phenyl)ethanol] | > 1000 | 
24 | COC(=O)Cc1ccc(Cc2cc(-c3cccc(Cl)c3)nc(C(F)(F)F)c2)cc1 [Example 141, Methyl 2-(4-((2-(3-chlorophenyl)-6-(trifluoromethyl)pyridin-4-yl)methyl)phenyl)acetate] | > 1000 | 
25 | OCCc1ccc(Nc2cc(C(F)(F)F)nc(-c3cccc(Cl)c3)n2)cc1 [Example 219, 2-(4-((2-(3-Chlorophenyl)-6-(trifluoromethyl)pyrimidin-4-yl)amino)phenyl)ethanol] | > 1000 | 

Now from value to compound, other results behind:

Row | IC50 [1] [nM] | SMILES | also measured
26 | > 1000 | CC(Oc1ccc(Nc2cc(-c3cccc(Cl)c3)nc3c2CCC3)cc1)C(N)=O (stereo not drawn) [Example 116, 2-(4-((2-(3-Chlorophenyl)-6,7-dihydro-5H-cyclopenta[b]pyridin-4-yl)amino)phenoxy)propanamide hydrochloride] | 
27 | > 1000 | NC(=O)Cc1ccc(Nc2cc(-c3cc(F)cc(Cl)c3)nc3c2CCC3)cc1 [Example 152, 2-(4-((2-(3-Chloro-5-fluorophenyl)-6,7-dihydro-5H-cyclopenta[b]pyridin-4-yl)amino)phenyl)acetamide hydrochloride] | 
28 | < 1000 | O=S1(=O)CCCc2nc(-c3cccc(Cl)c3)nc(Cc3ccc(CCO)cc3)c21 [Example 278, 2-(3-chlorophenyl)-4-(4-(2-hydroxyethyl)benzyl)-7,8-dihydro-6H-thiopyrano[3,2-d]pyrimidine 5,5-dioxide] | 
29 | < 1000 | O=S1(=O)CCCc2nc(C3CCCC3)nc(Nc3ccc(CCCO)cc3)c21 [Example 287, 2-Cyclopentyl-4-((4-(3-hydroxypropyl)phenyl)amino)-7,8-dihydro-6H-thiopyrano[3,2-d]pyrimidine 5,5-dioxide] | 
30 | < 1000 | CCc1nc(Nc2ccc(C(=O)O)cc2)nc(-c2ccc(Cl)s2)n1 [Example 30, 4-(4-(5-chlorothiophen-2-yl)-6-ethyl-1,3,5-triazin-2-ylamino)benzoic acid] | 
31 | < 1000 | CCNC(=O)Cc1ccc(Nc2nc(-c3ccc(Cl)s3)nc(C)c2CC)cc1 [Example 309, 2-[4-[[2-(5-Chloro-2-thienyl)-5-ethyl-6-methyl-pyrimidin-4-yl]amino]phenyl]-N-ethyl-acetamide] | 
32 | < 1000 | N#CNC(=O)Cc1ccc(Nc2nc(-c3cccc(Cl)c3)nc3c2SCCC3)cc1 [Example 314, 2-[4-[[2-(3-Chlorophenyl)-7,8-dihydro-6H-thiopyrano[3,2-d]pyrimidin-4-yl]amino]phenyl]-N-cyano-acetamide] | 
33 | < 1000 | OCCc1ccc(Nc2nc(C3CCCC3)nc3c2SCCC3)cc1 [Example 283, 2-(4-((2-Cyclopentyl-7,8-dihydro-6H-thiopyrano[3,2-d]pyrimidin-4-yl)amino)phenyl)ethanol] | 
34 | < 1000 | NC(=O)C(CO)Cc1ccc(Nc2cc(-c3cccc(Cl)c3)nc3c2CCC3)cc1 (stereo not drawn) [Example 108, 2-(4-((2-(3-Chlorophenyl)-6,7-dihydro-5H-cyclopenta[b]pyridin-4-yl)amino)benzyl)-3-hydroxypropanamide hydrochloride] | 
35 | < 1000 | CCc1nc(Nc2ccc(CCO)cc2)nc(-c2cccc(Cl)c2)n1 [Example 58, 2-(4-(4-(3-chlorophenyl)-6-ethyl-1,3,5-triazin-2-ylamino)phenyl)ethanol] | 
36 | < 1000 | CCc1nc(Nc2ccc(CCO)cc2)cc(-c2cccc(Cl)c2)n1 [Example 264, 2-(4-((6-(3-Chlorophenyl)-2-ethylpyrimidin-4-yl)amino)phenyl)ethanol] | 
37 | < 1000 | N#CNC(=O)Cc1ccc(Nc2nc(-c3cccc(Cl)c3)nc3c2S(=O)(=O)CCC3)cc1 [Example 315, 2-[4-[[2-(3-Chlorophenyl)-5,5-dioxo-7,8-dihydro-6H-thiopyrano[3,2-d]pyrimidin-4-yl]amino]phenyl]-N-cyano-acetamide] | 
38 | < 1000 | OCCc1ccc(Nc2nc(-c3cccc(Cl)c3)nc3c2SCCC3)cc1 [Example 272, 2-(4-((2-(3-chlorophenyl)-7,8-dihydro-6H-thiopyrano[3,2-d]pyrimidin-4-yl)amino)phenyl)ethanol] | 
39 | < 1000 | O=C(O)c1ccc(Nc2nc(-c3cccc(Cl)c3)nc(C3CC3)n2)cc1 [Example 41, 4-((4-(3-chlorophenyl)-6-cyclopropyl-1,3,5-triazin-2-yl)amino)benzoic acid] | 

From US11401286B2 (Tetra Discovery Partners, LLC, priority 2012, dated 2022)
